Assay results from PMC9184620, “TAS1553, a small molecule subunit interaction inhibitor of ribonucleotide reductase, exhibits antitumor activity by causing DNA replication stress” (Communications Biology, 2022).

Legend:
[1] = molecular target: T1, interaction between R1 and R2 (human RNR) (Homo sapiens, UniProt P23921); experiment: AlphaLISA binding assay (interaction between His-R1 and GST-R2); conditions: recombinant R1 and R2; mean ± SD
T1 construct: host or cells: Escherichia coli (His-R1)
T1 sequence (P23921 1-792): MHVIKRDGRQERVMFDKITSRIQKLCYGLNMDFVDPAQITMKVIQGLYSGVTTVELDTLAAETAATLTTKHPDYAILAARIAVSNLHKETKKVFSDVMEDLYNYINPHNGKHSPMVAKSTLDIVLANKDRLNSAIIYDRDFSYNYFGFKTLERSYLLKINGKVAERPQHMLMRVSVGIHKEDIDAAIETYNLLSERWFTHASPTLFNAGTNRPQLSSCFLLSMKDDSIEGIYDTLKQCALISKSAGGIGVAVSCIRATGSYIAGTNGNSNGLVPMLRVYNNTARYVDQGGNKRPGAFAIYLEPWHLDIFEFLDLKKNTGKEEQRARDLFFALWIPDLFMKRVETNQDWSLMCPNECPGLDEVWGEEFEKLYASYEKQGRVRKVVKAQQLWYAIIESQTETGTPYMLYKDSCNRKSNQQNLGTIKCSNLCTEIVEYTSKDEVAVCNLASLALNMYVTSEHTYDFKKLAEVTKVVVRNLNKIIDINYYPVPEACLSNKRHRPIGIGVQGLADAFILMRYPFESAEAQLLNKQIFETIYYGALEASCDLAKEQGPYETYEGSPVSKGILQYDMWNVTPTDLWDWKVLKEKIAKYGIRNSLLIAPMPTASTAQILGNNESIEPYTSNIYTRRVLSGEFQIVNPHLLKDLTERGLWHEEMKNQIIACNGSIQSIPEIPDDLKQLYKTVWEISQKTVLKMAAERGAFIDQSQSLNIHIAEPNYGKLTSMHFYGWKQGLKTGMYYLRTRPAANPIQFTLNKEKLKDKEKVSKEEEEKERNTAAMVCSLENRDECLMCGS

MV-4-11 cells = experiment: Cell proliferation assay (CellTiter-Glo), MV-4-11; format: cell-based; conditions: Homo sapiens, MV4-11, 72 h; MV-4-11, 3 days exposure
Procedure: Next, we evaluated both concentration-dependent and time-dependent effects of TAS1553 on the dATP pool in HCC38 and MV-4-11 cell lines using absolute quantification. After 2 h of TAS1553 exposure, there was a concentration-dependent reduction of intracellular dATP pool in both cell lines (Fig. 2c). Furthermore, the intracellular dATP pool was reduced within 30 minutes when treated with TAS1553 at 1 or 10 µmol/L in both cell lines (Fig. 2d), consistent with its inhibitory effect on the protein-protein interaction (Fig. 2a).
(§1) Cell proliferation assay was performed as reported previously. Briefly, cells were plated and incubated for 1 day, followed by 3 days of exposure to the compound. After compound exposure, viable cells were detected by using the CellTiter-Glo luminescent cell viability assay (Promega). GI50 values were calculated using the SAS software package. The experiment was performed in triplicates.

HCC38 and MV-4-11 cells = experiment: Immunoblotting of DNA replication stress and apoptosis markers; format: cell-based, human; conditions: both cell lines
Procedure: Because dATP is a critical metabolite for DNA replication, we next examined whether TAS1553 caused DNA replication stress. We evaluated phosphorylation of Chk1 at Ser345 in HCC38 and MV-4-11 cells by treating them with TAS1553 for 2 h. […] Because phosphorylated RPA2 at Thr21 binds to single-strand DNA at the stalled replication fork[42], TAS1553 may cause the replication fork stalling. To test this possibility, we analyzed the nuclear localization of phosphorylated RPA2 at Thr21.
Next, we examined the effect of TAS1553 on apoptosis induction in HCC38 and MV-4-11 cells. We treated TAS1553 at 1 or 10 µmol/L for 24 h and analyzed the time-dependent change of cleaved PARP and cleaved caspase-3 (Fig. 2g). Compared with control cells (0 h), phosphorylation of Chk1 at Ser345 was increased after 1 h of TAS1553 treatment at 1 and 10 μmol/L in both cell lines. Phosphorylation of RPA2 was also detected after 2 h of treatment with TAS1553 at 10 μmol/L. Following the induction of replication stress and fork stalling, cleaved PARP and cleaved caspase-3 levels were increased in both cell lines after 4 h of TAS1553 treatment at 10 μmol/L or after 8 h of treatment at 1 μmol/L.
Immunoblotting analysis was performed as reported previously. […] Proteins were separated by SDS-PAGE and analyzed by Western blotting. […] The signals were detected with the ImageQuant LAS 4010 (GE Healthcare UK Ltd.).

[2] = tested on: human solid and hematological cancer cell lines; experiment: Cell proliferation assay (CellTiter-Glo), cell line panel; format: cell-based; conditions: 72 h, range over solid and hematological cancer cell lines, 3 days exposure
Procedure: The growth inhibitory effect of TAS1553 was determined by calculating the GI50 value against human solid and hematological cancer cell lines.
as §1

MLL-AF9 AML cells = experiment: Survival in systemic AML model (mice bone marrow cells harboring human MLL-AF9 fusion gene); format: in vivo, mouse; conditions: 100 mg/kg daily
Procedure: Next, we evaluated the antitumor activity of a high-dose administration of TAS1553 and cytarabine in rats bearing MV-4-11 xenografts. […] The rats were treated with cytarabine for 5 days at 16 and 32 mg/kg. […] In addition to the hematologic tumor, we evaluated the antitumor activity of TAS1553 in mice implanted with HCC38 cell line as a solid tumor model. […] Finally, TAS1553 was evaluated for its survival benefit in a mouse model. To achieve this, we established mice bone marrow cells harboring the human MLL-AF9 fusion gene, which is known as a driver gene for AML in humans as well as mice[48]. Mice were transplanted with the cells through the tail vein and the treatment with TAS1553 was started 11 days post-implantation.

In the case of `Cc1ccc(F)c([C@@H](C)[C@H](NS(=O)(=O)c2ccc(Cl)cc2C(N)=O)c2n[nH]c(=O)o2)c1C` [TAS1553, 5-chloro-2-{N-[(1S,2R)-2-(6-fluoro-2,3-dimethylphenyl)-1-(5-oxo-4,5-dihydro-1,3,4-oxadiazol-2-yl)propyl]sulfamoyl}benzamide], the IC50 [1] is reported as 39.6 ± 4.2 nM, the GI50 (MV-4-11 cells) is reported as 393 nM and the “phosphorylation of Chk1 at Ser345” value (HCC38 and MV-4-11 cells; 1 µmol/L, 2 h) is reported as “markedly induced”. The “cleaved PARP and cleaved caspase-3 levels” value (HCC38 and MV-4-11 cells; after 4 h at 10 μmol/L or 8 h at 1 μmol/L) was “increased”, the GI50 [2] was 228 to 4150 nM and the median survival time (MLL-AF9 AML cells; start 11 days post-implantation) was 75.5 days. For the same molecule, the “increase in the life span” value (MLL-AF9 AML cells; versus control) was 34.8%.
